Test results from patent publication US12083089B2, “Compositions and methods for stimulating ventilatory and/or respiratory drive” (CASE WESTERN RESERVE UNIVERSITY, priority 2015, dated 2024).

How the values were obtained:
[1] = test system: adult male rats; test: Von Frey Test, morphine 1 mg/kg; type: in vivo, rat; details: given alone, morphine 1 mg/kg IV
[2] = test system: freely moving rats; test: Hot-plate (hind-paw withdrawal) latency (HPL), Hargreaves's test, morphine 10 mg/kg; type: in vivo, rat; details: morphine 10 mg/kg IV in vehicle-treated rats
[3] = test system: freely moving adult male Sprague-Dawley rats; test: Whole-body plethysmography of ventilatory parameters in morphine-treated rats; details: morphine 10 mg/kg IV; for EF50, ml/sec - Total Response (% change) / Expiratory Drive (TV/Te), ml/sec - Total Response (% change) / Expiratory Time (Te), sec - Total Response (% change) / Frequency, breaths/min - Total Response (% change) / Inspiratory Drive (TV/Ti), ml/sec - Total Response (% change) / Inspiratory Time (Ti), sec - Total Response (% change) / Inspiratory Time/Expiratory Time - Total Response (% change) / Minute Ventilation, ml/min - Total Response (% change) / Peak Expiratory Flow, ml/sec - Total Response (% change) / Peak Expiratory Flow/Peak Inspiratory Flow - Total Response (% change) / Peak Inspiratory Flow, ml/sec - Total Response (% change) / Tidal Volume (TV), ml - Total Response (% change): over the 15 min before drug injection
Protocol: Permissions, rats, surgical procedures and blinding of protocols. All studies were carried out in accordance with the NIH Guide for the Care and Use of Laboratory Animals (NIH Publication No. […]) revised in 1996. The protocols were approved by the Animal Care and Use Committees of the University of Virginia, Case Western Reserve University and Loma Linda University. In addition, all studies were carried out in compliance with the ARRIVE (Animal Research: Reporting of In Vivo Experiments) guidelines. Adult male Sprague-Dawley rats (Harlan, Madison, WI, USA) were implanted with jugular vein catheters under 2% isoflurane anesthesia and some rats received femoral arterial catheters. The rats were allowed at least four days to recover from surgery before use. All arterial catheters were flushed daily with heparin solution (50 units of heparin in phosphate-buffered saline at 0.1 M, pH 7.4). All catheters were flushed with phosphate-buffered saline (0.1 M, pH 7.4) approximately four hours before commencement of the experiments. All studies were performed in a quiet laboratory with relative humidity of 49±2% and room temperature of 21.4±0.2° C. […] Also, please note that the antinociception and ventilatory studies were done in separate groups of rats so as to not complicate the respiratory measurements. The recording (plethysmography, antinociception) sessions and the arterial blood gas assays were done by a particular investigator who administered the opioid, vehicle or test drug such as d-cystine diME. The syringes containing the vehicle or test drug were made up by another investigator, such that the investigator running the actual experiment was blinded to the treatment protocol. In every case, the data files resulting from a particular study were first collated and analyzed by another investigator in the group.
Ventilatory parameters were recorded in freely moving rats by whole body plethysmography (PLY3223; Data Sciences International, St. Paul, MN). The rats were placed in individual chambers and given 60 min to acclimatize to allow true resting ventilatory parameters to be established. […] The rats received another injection of vehicle or 1-NACme (500 μmol/kg, IV) 15 min later and ventilatory parameters were recorded for a further 60 min.
The provided software (Fine Pointe, BUXCO) constantly corrected digitized values for changes in chamber temperature and humidity. Pressure changes associated with the respiratory waveforms were then converted to volumes (i.e., TV, PIF and PEF) using the algorithm of Epstein and colleagues. Specifically, factoring in chamber temperature and humidity, the cycle analyzers filtered the acquired signals, and BUXCO algorithms (Fine Pointe) generated an array of box flow data that identified a waveform segment as an acceptable breath. From that data vector, the minimum and maximum values were determined. Flows at this point were considered to be “box flow” signals.
The recorded data (1 min bins) and derived parameters, Vt/Ti and Response Area (cumulative percent changes from pre-values) were taken for statistical analyses. The pre-drug 1 min bins excluded occasional marked deviations from resting due to movements or scratching by the rats. These exclusions ensured accurate determinations of baseline parameters. The data are presented as mean±SEM. All data unless other-wise stated (see immediately below) were analyzed by one-way or two-way analysis of variance followed by Student's modified t test with Bonferroni corrections for multiple comparisons between means using the error mean square terms from each ANOVA. A value of P<0.05 denoted the initial level of statistical significance that was modified according to the number of comparisons between means.

[4] = freely moving rats, then d-cystine diEE 500 μmol/kg IV 15 min later
[5] = rats that subsequently received D-Cystine diEE
[6] = rats that subsequently received vehicle, D-Cystine diEE study
[7] = rats that subsequently received D-Cystine
[8] = rats that subsequently received L-NACme
[9] = rats that subsequently received vehicle, D-Cystine study
[10] = rats that subsequently received vehicle, L-NACme study

CN1CC[C@]23c4c5ccc(O)c4O[C@H]2[C@@H](O)C=C[C@H]3[C@H]1C5 [Morphine, morphine]
force needed to initiate hind-paw withdrawal (Von Frey) ([1]; D-cystine diME 500 μmol/kg IV, FIG. 27 study): 177±8 grams
force needed to initiate hind-paw withdrawal (Von Frey) ([1]; L-cystine diME 500 μmol/kg IV, FIG. 25 study): 88.3 ± 7.0 g
duration of the increase in HPL [2]: at least 4 h
changes in EF50 [3, 4]: sustained increase
changes in expiratory drive (TV/Te) [3, 4]: relatively pronounced but shorter-lived decrease
changes in expiratory time (Te) [3, 4]: decreases in Te
changes in frequency of breathing (Freq) [3, 4]: brief increase in Freq that was followed a relatively transient decrease
changes in inspiratory drive (TV/Ti) [3, 4]: prompt and sustained decrease
changes in inspiratory time (Ti) [3, 4]: sustained increases in Ti
changes in minute ventilation (MV) [3, 4]: transient increase in MV that was followed by a sustained decrease
changes in peak expiratory flow (PEF) [3, 4]: lesser decreases
changes in peak inspiratory flow (PIF) [3, 4]: pronounced and sustained decrease
changes in tidal volume (TV) [3, 4]: prompt and sustained decrease
EF50, ml/sec - Total Response (% change) [3, 5]: +33.4 ± 15.0 %
Expiratory Drive (TV/Te), ml/sec - Total Response (% change) [3, 5]: −14.6 ± 10.2%
Expiratory Time (Te), sec - Total Response (% change) [3, 5]: −2.0 ± 6.1%
Frequency, breaths/min - Total Response (% change) [3, 5]: −1.9 ± 6.6%
Inspiratory Drive (TV/Ti), ml/sec - Total Response (% change) [3, 5]: −44.5 ± 5.5 %
Inspiratory Time (Ti), sec - Total Response (% change) [3, 5]: +40.2 ± 6.3 %
Inspiratory Time/Expiratory Time - Total Response (% change) [3, 5]: −27.1 ± 6.2 %
Minute Ventilation, ml/min - Total Response (% change) [3, 5]: −28.4 ± 6.4 %
Peak Expiratory Flow, ml/sec - Total Response (% change) [3, 5]: −16.2 ± 5.7 %
Peak Expiratory Flow/Peak Inspiratory Flow - Total Response (% change) [3, 5]: +21.5 ± 6.7 %
Peak Inspiratory Flow, ml/sec - Total Response (% change) [3, 5]: −29.7 ± 2.7 %
Tidal Volume (TV), ml - Total Response (% change) [3, 5]: −26.3 ± 7.4 %
EF50, ml/sec - Total Response (% change) [3, 6]: +30.5 ± 14.7 %
Expiratory Drive (TV/Te), ml/sec - Total Response (% change) [3, 6]: −22.3 ± 13.6%
Expiratory Time (Te), sec - Total Response (% change) [3, 6]: −4.7 ± 6.0%
Frequency, breaths/min - Total Response (% change) [3, 6]: +0.3 ± 4.3%
Inspiratory Drive (TV/Ti), ml/sec - Total Response (% change) [3, 6]: −44.3 ± 7.1 %
Inspiratory Time (Ti), sec - Total Response (% change) [3, 6]: +38.6 ± 2.9 %
Inspiratory Time/Expiratory Time - Total Response (% change) [3, 6]: −24.1 ± 4.7 %
Minute Ventilation, ml/min - Total Response (% change) [3, 6]: −28.6 ± 7.2 %
Peak Expiratory Flow, ml/sec - Total Response (% change) [3, 6]: −17.4 ± 6.1 %
Peak Expiratory Flow/Peak Inspiratory Flow - Total Response (% change) [3, 6]: +27.6 ± 7.0 %
Peak Inspiratory Flow, ml/sec - Total Response (% change) [3, 6]: −29.5 ± 8.1 %
Tidal Volume (TV), ml - Total Response (% change) [3, 6]: −29.3 ± 7.6 %
Frequency: Morphine - first 15 min response (%) [3, 7]: −4.7 ± 3.1%
Frequency: Morphine - peak (+) response (%) [3, 7]: +62 ± 7 %
Frequency: Morphine peak (−) response (%) [3, 7]: −23 ± 4 %
Minute Ventilation: Morphine - first 15 min response (%) [3, 7]: −38 ± 5 %
Minute Ventilation: Morphine - peak (+) response (%) [3, 7]: +14 ± 3 %
Minute Ventilation: Morphine peak (−) response (%) [3, 7]: −61 ± 8 %
Tidal Volume: Morphine - first 15 min response (%) [3, 7]: −35 ± 5 %
Tidal Volume: Morphine - peak (+) response (%) [3, 7]: −30 ± 4 %
Tidal Volume: Morphine peak (−) response (%) [3, 7]: −51 ± 6 %
EF50, ml/sec - Peak Responses (% change) [3, 5]: +122 ± 27 %
Expiratory Drive (TV/Te), ml/sec - Peak Responses (% change) [3, 5]: −46.2 ± 7.8 %
Expiratory Time (Te), sec - Peak Responses (% change) [3, 5]: −32.4 ± 17.6%
Frequency, breaths/min - Peak Responses (% change) [3, 5]: −20.0 ± 4.5 %
Inspiratory Drive (TV/Ti), ml/sec - Peak Responses (% change) [3, 5]: −53.7 ± 6.0 %
Inspiratory Time (Ti), sec - Peak Responses (% change) [3, 5]: +41.3 ± 7.1 %
Inspiratory Time/Expiratory Time - Peak Responses (% change) [3, 5]: −41.7 ± 7.8 %
Minute Ventilation, ml/min - Peak Responses (% change) [3, 5]: −48.5 ± 6.0 %
Peak Expiratory Flow, ml/sec - Peak Responses (% change) [3, 5]: −34.8 ± 6.7 %
Peak Expiratory Flow/Peak Inspiratory Flow - Peak Responses (% change) [3, 5]: +26.7 ± 5.4 %
Peak Inspiratory Flow, ml/sec - Peak Responses (% change) [3, 5]: −43.2 ± 2.7 %
Tidal Volume (TV), ml - Peak Responses (% change) [3, 5]: −35.8 ± 6.9 %
Frequency: Morphine - first 15 min response (%) [3, 8]: −4.9 ± 2.8%
Frequency: Morphine - peak (+) response (%) [3, 8]: +42 ± 6 %
Frequency: Morphine peak (−) response (%) [3, 8]: −22 ± 4 %
Minute Ventilation: Morphine - first 15 min response (%) [3, 8]: −35 ± 3 %
Minute Ventilation: Morphine - peak (+) response (%) [3, 8]: +20 ± 6 %
Minute Ventilation: Morphine peak (−) response (%) [3, 8]: −54 ± 4 %
Tidal Volume: Morphine - first 15 min response (%) [3, 8]: −34 ± 3 %
Tidal Volume: Morphine - peak (+) response (%) [3, 8]: −16 ± 6 %
Tidal Volume: Morphine peak (−) response (%) [3, 8]: −40 ± 6 %
EF50, ml/sec - Peak Responses (% change) [3, 6]: +133 ± 42 %
Expiratory Drive (TV/Te), ml/sec - Peak Responses (% change) [3, 6]: −51.5 ± 10.1 %
Expiratory Time (Te), sec - Peak Responses (% change) [3, 6]: −29.3 ± 17.1%
Frequency, breaths/min - Peak Responses (% change) [3, 6]: −21.5 ± 3.4 %
Inspiratory Drive (TV/Ti), ml/sec - Peak Responses (% change) [3, 6]: −52.7 ± 5.4 %
Inspiratory Time (Ti), sec - Peak Responses (% change) [3, 6]: +37.9 ± 3.0 %
Inspiratory Time/Expiratory Time - Peak Responses (% change) [3, 6]: −38.0 ± 4.2 %
Minute Ventilation, ml/min - Peak Responses (% change) [3, 6]: −51.2 ± 6.3 %
Peak Expiratory Flow, ml/sec - Peak Responses (% change) [3, 6]: −38.1 ± 8.5 %
Peak Expiratory Flow/Peak Inspiratory Flow - Peak Responses (% change) [3, 6]: +30.2 ± 3.4 %
Peak Inspiratory Flow, ml/sec - Peak Responses (% change) [3, 6]: −45.6 ± 7.0 %
Tidal Volume (TV), ml - Peak Responses (% change) [3, 6]: −42.9 ± 8.7 %
Frequency: Morphine - first 15 min response (%) [3, 9]: −3.8 ± 2.6%
Frequency: Morphine - peak (+) response (%) [3, 9]: +57 ± 8 %
Frequency: Morphine peak (−) response (%) [3, 9]: −21 ± 3 %
Minute Ventilation: Morphine - first 15 min response (%) [3, 9]: −39 ± 4 %
Minute Ventilation: Morphine - peak (+) response (%) [3, 9]: +9 ± 3 %
Minute Ventilation: Morphine peak (−) response (%) [3, 9]: −60 ± 9 %
Tidal Volume: Morphine - first 15 min response (%) [3, 9]: −37 ± 6 %
Tidal Volume: Morphine - peak (+) response (%) [3, 9]: −32 ± 5 %
Tidal Volume: Morphine peak (−) response (%) [3, 9]: −49 ± 5 %
Frequency: Morphine - first 15 min response (%) [3, 10]: −4.0 ± 2.1%
Frequency: Morphine - peak (+) response (%) [3, 10]: +47 ± 6 %
Frequency: Morphine peak (−) response (%) [3, 10]: −24 ± 3 %
Minute Ventilation: Morphine - first 15 min response (%) [3, 10]: −36 ± 3 %
Minute Ventilation: Morphine - peak (+) response (%) [3, 10]: +19 ± 5 %
Minute Ventilation: Morphine peak (−) response (%) [3, 10]: −53 ± 5 %
Tidal Volume: Morphine - first 15 min response (%) [3, 10]: −33 ± 4 %
Tidal Volume: Morphine - peak (+) response (%) [3, 10]: −19 ± 3 %
Tidal Volume: Morphine peak (−) response (%) [3, 10]: −38 ± 5 %
